Data from patent US9708359B2, “Pyrrolopyrimidine nucleosides and analogs thereof” (Chimerix, Inc., priority 2015, dated 2017).
Like-named read-outs stand apart in the source and are kept apart here.

Assays:
[1] = tested on: MCMV; experiment: Plaque-reduction assay for MCMV; assay type: cell-based; conditions: MEF
Description: Plaque-Reduction Assays for MCMV:
Mouse embryo fibroblast cells were prepared from mouse embryos using a procedure similar to that outlined above for HFF cells and suspended in tissue culture media as described above and seeded into plates and incubated. The medium was aspirated and the cell monolayers were infected with MCMV. The infected cells were then incubated at 37° C. for 1 h and the plates were rocked occasionally to ensure that the media covered the entire monolayer. Compounds were serially diluted in tissue maintenance cell culture media described above and the solutions were added to the infected monolayers. Infected monolayers were incubated for 7 d and then stained with Neutral Red solution as described above. Plaques were enumerated and EC50 values were interpolated from the experimental data by standard methods.
Mouse embryo fibroblast cells were prepared from mouse embryos using a procedure similar to that outlined above for HFF cells and suspended in tissue culture media as described above and seeded into 12 well plates and incubated at 37° C. for 24 h. The medium was aspirated and the cell monolayers were infected with the Smith strain of MCMV in a final volume of 0.2 mL in each of triplicate wells. The infected cells were then incubated at 37° C. for 1 h and the plates were rocked occasionally to ensure that the media covered the entire monolayer. […]

[2] = tested on: HHV-8; experiment: cells; assay type: cell-based, human herpes virus 8; conditions: Homo sapiens, BCBL1; HHV-8, BCBL-1 cells
[3] = tested on: HCV; experiment: microbe, parasite or virus in culture; assay type: cell-based; conditions: Hepatitis C virus, Huh 7 cells
Description: Luciferase reporter (Replicon)/CytoTox-1 (Toxicity). Compounds were screened for anti-HCV activity using a luciferase (Luc) reporter gene endpoint in the HCV primary assay. The Luc reporter was used as an indirect measure of HCV replication as its activity is directly proportional to HCV RNA levels. Assessment of cytotoxicity is conducted in parallel. Drug stocks were prepared in DMSO unless otherwise specified and were diluted with tissue culture medium to the desired high-test concentration. For each assay, the compounds were then further diluted in tissue culture medium as required. After incubation, the cells were processed to derive, where applicable, EC50 and EC90 (compound concentration reducing replicon replication by 50% and 90% respectively). […] Anti-HCV activity was assessed with the replicon (genotype 1b or 2a) or HCVcc virus-derived Luc activity as readout; whereas the cytotoxic concentrations of drug reducing cell numbers was assessed by the CytoTox-1 cell proliferation assay according to manufacturer's protocol. […]
Luciferase reporter (Replicon)/CytoTox-1 (Toxicity). […] Anti-HCV activity was assessed with the replicon (genotype 1b or 2a) or HCVcc virus-derived Luc activity as readout; whereas the cytotoxic concentrations of drug reducing cell numbers was assessed by the CytoTox-1 cell proliferation assay (Promega, Madison, Wis.) according to manufacturer's protocol. […]

[4] = tested on: RSV; experiment: microbe, parasite or virus in culture; assay type: cell-based; conditions: human respiratory syncytial virus, MA104, MA-104 cells
[5] = tested on: VEEV; experiment: microbe, parasite or virus in culture; assay type: cell-based; conditions: Venezuelan equine encephalitis virus, Vero 76
[6] = tested on: YFV; experiment: microbe, parasite or virus in culture; assay type: cell-based; conditions: Yellow fever virus, Vero
[7] = Cytotoxicity in lymphocyte assays, MOLT-3 cells; assay type: cell-based; conditions: human, parallel to HHV-6B assay
Description: Every antiviral assay included a parallel cytotoxicity assay with the same cells used for each virus, the same cell number, the same drug concentrations, and the same incubation times to provide the same drug exposure. To ensure that the cytotoxicity of all compounds could be compared directly, a standard neutral red uptake cytotoxicity assay for all compounds in confluent HFF cells with a 7 d incubation period was performed.
Cytotoxicity in Lymphocyte Assays:
Cell viability in all assays with lymphocytes was assessed with a luminescent Cell Viability Assay. Briefly, assay plates were incubated at ambient temperature for 30 min then luminescent reagent was added to each well and the plates were mixed to lyse the cells. Plates were then incubated for at ambient temperature and the luminescence was quantified on a luminometer. Standard methods were used to calculate drug concentrations that inhibited the proliferation of cells by 50% (CC50).
Cell viability in all assays with lymphocytes was assessed with the CellTiter-Glo Luminescent Cell Viability Assay (Promega). […] Plates were then incubated for an additional 10 min at ambient temperature and the luminescence was quantified on a luminometer. […]

[8] = tested on: Vero76

Work on `Cc1nc(N)c2c(C(N)=O)cn([C@@H]3O[C@H](CO)[C@@H](O)[C@H]3O)c2n1` [Compound 1, 4-amino-7-((2R,3R,4S,5R)-3,4-dihydroxy-5-(hydroxymethyl)tetrahydrofuran-2-yl)-2-methyl-7H-pyrrolo[2,3-d]pyrimidine-5-carboxamide] yielded an EC50 [1] of over 100 µM, an EC50 [2] of over 12 µM and an EC50 [3] of 18.4 µM. For the same molecule, the EC50 [4] was 31 µM, the EC50 [5] was over 100 µM and the EC50 [6] was over 100 µM. It also gave a CC50 [7] of 44.7 µM, a CC50 ([8]; African green monkey) of over 100 µM and a CC50 ([8]; Vero76 cells, parallel to DENV-2 assay) of over 100 µM. The CC50 ([8]; Vero76 cells, parallel to ENTV-71 assay) was over 100 µM, the CC50 ([8]; Vero76 cells, parallel to POV-3 assay) was over 100 µM and the CC50 ([8]; Vero76 cells, parallel to WNV assay) was over 100 µM.
